Reference: PubChem BioAssay AID651738 (Southern Research Specialized Biocontainment Screening …, 2012)
The source made the active and inactive calls. The rule behind the calls is not given here.

Tested on: Chikungunya virus infected cells, CPE inhibition
Assay: Chikungunya virus CPE inhibition, VEEV inhibitor project, cell-based, set 2 (AID 651738)
Conditions: not given

Compound | IC50 [µM]
CN(c1ccc(OCc2ccccc2)cc1)c1nc(=O)c2cccnc2s1 | 1.72

Tested on: not listed separately
Assay: as above
Conditions: Chikungunya virus infected cells, CPE inhibition; at 50 µM (top of the series)

Compound | inhibition
CN1CCN(C)C(=Nc2ccc([N+](=O)[O-])cc2C(=O)Nc2ccccc2F)C1 | 8.6% (inactive)
COc1ccc(NC(=O)c2cc([N+](=O)[O-])ccc2N=C2CN(C)CCN2C)cc1 | 2.2% (inactive)
O=c1c2cc(F)c(F)cc2nc(CN2CCNCC2)n1-c1ccccc1 | -1% (inactive)
CCN1CCN(C2c3ncccc3C(=O)N2c2ccccc2)CC1 (stereo not drawn) | -1.8% (inactive)
COc1ccc(CNc2nc(=O)c3cccnc3s2)cc1 | 0.1% (inactive)
O=c1c2cc([N+](=O)[O-])ccc2nc(CN2CCCNCC2)n1-c1ccccc1 | -3.1% (inactive)
O=c1c2cc([N+](=O)[O-])ccc2nc(CN2CCCNC2)n1-c1ccccc1 | -0.2% (inactive)
CCN1CCN(Cc2nc3ccc([N+](=O)[O-])cc3c(=O)n2-c2ccccc2F)CC1 | -0.8% (inactive)
CCN1CCN(Cc2nc3ccc(-c4ccccn4)cc3c(=O)n2-c2ccccc2)CC1 | 4.3% (inactive)
COc1ccc(Nc2nc(=O)c3cccnc3s2)cc1 | 11.7% (inactive)
CN1CCN(C)C(=Nc2ccc([N+](=O)[O-])cc2C(=O)Nc2ccccc2)C1 | -3.1% (inactive)
CN1CCN(C)C(=Nc2ccc(C#N)cc2C(=O)Nc2ccccc2)C1 | 3% (inactive)
